The values that follow come from US20120121707A1, “Tolbutamide Particle And Preparing Method Thereof And Method Of Reducing A Blood Glucose” (National Taiwan University, priority 2010, published 2012).

The nature of data set [1]: Particle size distribution analysis of tolbutamide particles. In kind it is physicochemical. The source says: In the embodiments 1 to 4, the usage amount of the bulk drug of tolbutamide is in a range of 2 to 5 gram, and the other operation conditions, e.g. the pressures and the temperature of mixing, the temperatures before and after the expansion and the particle sizes of the tolbutamide micro-particles, are listed in Table 1 below.
In the embodiments 5 to 8, the usage amount of the bulk drug of tolbutamide is in a range of 2 to 5 gram, and the other operation conditions, e.g. the pressures and the temperature of mixing, the temperatures before and after the expansion and the particle sizes of the tolbutamide micro-particles, are listed in Table 2 below.
FIG. 1A is the schematic diagram showing the distribution and the cumulative distribution of the particle sizes for the bulk drug of tolbutamide, wherein the average particle size is 89.4 micron. FIG. 1B is the schematic diagram showing the distribution and the cumulative distribution of the particle sizes for the tolbutamide micro-particles obtained by using the method of the rapid expansion of supercritical solution (RESS) in the fourth embodiment. FIG. 1C is the schematic diagram showing the distribution and the cumulative distribution of the particle sizes for the tolbutamide micro-particles obtained by using the method of RESS with solid cosolvent (RESS-SC) in the eighth embodiment. […]

For data set [2] the following is noted: cited from earlier work.

Regarding `CCCCNC(=O)NS(=O)(=O)c1ccc(C)cc1` [Bulk drug of tolbutamide, tolbutamide], the average particle size was 89.4 μm in data set [1] (Table 1, RESS method, supercritical CO2, no cosolvent, bulk drug as comparison) and 89.4 micron in data set [1] (text on FIGS. 1A-1D).
Turning to `CCCCNC(=O)NS(=O)(=O)c1ccc(C)cc1` [tolbutamide], in data set [2] (ethanol and chloroform), the “solubility in ethanol and chloroform” value was “soluble in ethanol and chloroform”. Also, in data set [2] (water), the solubility in water entry was “almost insoluble in the water”.
